From publication PMC3198688, “Design and development of a peptide-based adiponectin receptor agonist for cancer treatment” (BMC Biotechnology, 2011)
Read-outs that look alike come from different tables or passages of the source. One block for each molecule: values may come before it. Square brackets hold non-standard residues; d marks the D form. Peptide text beside a SMILES is read from it. Nva = CCC[C@H](N)C(=O)O

Tests used:
[1] = system: MCF-7 breast cancer cells; experiment: Growth inhibition (cytostatic) screening in MCF-7 cells; assay type: cell-based, human
Experimental: Biological activity of the peptides was first assessed using MCF-7 breast cancer cells that are known to express AdipoR1 [38]. MCF-7 cell line was obtained from ATCC (Manassas, VA) and routinely grown in DMEM:F12 plus 5% calf serum (Cellgro Mediatech, Manassas, VA) at 37°C, 5% CO2. For screening experiments, MCF-7 cells were plated in 24-well plates at the concentration of 30,000 cells/well. After 12 h of culture in the growth medium, the cells were synchronized in serum-free medium (SFM) (DMEM:F12 supplemented with […] bovine serum albumin, 1 mM FeSO4 and 2 mM L-glutamine) for 24 h, and then shifted back to the full growth medium containing either gAd (Phoenix Secretomics, Burlingame, CA) at 50 ng/mL, individual peptides, or no test compounds. After 24 h, the cells were counted under the microscope with trypan-blue exclusion. Each experiment was performed in triplicate and repeated at least three times.
The effects of the lead active peptide 355 ([…]) on cell proliferation were tested in breast cancer cell lines (MCF-7, MDA-MB-231) and in glioblastoma cells (LN18), all obtained from ATCC and routinely cultured as described previously. The peptide was tested at 10 pM-100 μM concentrations under conditions described above under peptide screening.

[2] = biological target: T1, AdipoR1 extracellular loops (Homo sapiens, UniProt Q96A54); experiment: Screening of AdipoR1/peptide binding (ELISA plate, biotin-labeled loop peptides); details: preliminary, qualitative study; biotin-labeled loop fragments; data not shown
T1 construct: biotin-labeled linear synthetic models of the 4 extracellular loops of AdipoR1; made in house; host or cells: chemical solid-phase peptide synthesis (Fmoc), no expression host
Text: (§1) The 66 unmodified adiponectin array peptides were individually dried down to wells of an ELISA plate, and tested for binding to biotin-labeled linear synthetic models of the 4 extracellular loops of AdipoR1. The receptor/peptide interaction was detected by horseradish-peroxidase conjugated streptavidin.

[3] = system: AdipoR1 extracellular loops; experiment: as above; details: preliminary, qualitative study; biotin-labeled loop fragments; data not shown
Text: as §1

[4] = Peptide stability in whole mouse blood; assay type: in vitro ADME
Experimental: Sixty μg of ADP 355 were dissolved in 100 μL water, and 10 μL aliquots were mixed with 100 μL of freshly drawn mouse blood. After 30 min of incubation at 37°C, blood cells were centrifuged at 10,000 × g. Fifty μL serum was mixed with 50 μL phosphate buffered saline pH 6.8 (PBS), and serum proteins were precipitated by addition of 45 μL aqueous 15% trichloroacetic acid (TCA) for 10 min at 4°C. After centrifugation at 12,000 × g, the supernatant was neutralized with 0.1 M aqueous sodium hydroxide and 0.5 μL of this solution was mixed with 0.5 μL α-cyano-4-hydroxycinnamic acid (4 mg/mL in 60% aqueous acetonitrile containing 0.1% TFA) as matrix on a sample plate. Analysis was performed using a MALDI time-of-flight tandem mass spectrometer (MALDI-TOF/TOF-MS, 4700 proteomic analyzer, Applied Biosystems, Weiterstadt, Germany). Additionally, the neutralized supernatant was loaded on a Jupiter C18 RP-HPLC column (4.6 mm internal diameter, 150 mm length, 5 μm particle size, 30 nm pore size) previously calibrated with known amounts of ADP 355 dissolved in PBS. Absorbance was measured at 214 nm.

[5] = In vivo toxicity in CBA/J mice; details: for Kidney weight / Liver weight / Spleen weight: CBA/J mice, day 5
Text: On day 5, the mice were sacrificed by CO2 inhalation. The potential peptide elimination organs: the livers, spleens and kidneys were removed and weighed.

binding to the other extracellular loops of AdipoR1 [3]: not other loops
Compound: CC[C@H](C)[C@H](NC(=O)[C@@H](N)CC(N)=O)C(=O)N1CCC[C@H]1C(=O)NCC(=O)N[C@@H](CC(C)C)C(=O)N[C@@H](Cc1ccc(O)cc1)C(=O)N[C@@H](Cc1ccc(O)cc1)C(=O)N[C@@H](Cc1ccccc1)C(=O)N[C@@H](C)C(=O)N[C@@H](Cc1ccc(O)cc1)C(N)=O [ADP 25, H-Asn-Ile-Pro-Gly-Leu-Tyr-Tyr-Phe-Ala-Tyr-NH2] (H-NIPGLYYFAY-NH2)
biological activity in cell growth inhibition assays [1]: fully active
binding to the first extracellular loop of AdipoR1 [2]: bound the first extracellular loop of AdipoR1

Compound: CCC[C@H](NC(=O)[C@@H]1CCCN1C(=O)[C@@H](NC(=O)[C@H](N)CC(N)=O)[C@@H](C)CC)C(=O)N[C@@H](CC(C)C)C(=O)N[C@@H](Cc1ccc(O)cc1)C(=O)N[C@H](CO)C(=O)N[C@@H](Cc1ccccc1)C(=O)N[C@@H](C)C(=O)N[C@H](CO)C(N)=O [ADP 355, H-DAsn-Ile-Pro-Nva-Leu-Tyr-DSer-Phe-Ala-DSer-NH2] (H-[dN]IP[Nva]LY[dS]FA[dS]-NH2)
stability in whole mouse blood after 30 min ([4]; freshly drawn whole mouse blood, 37°C, 30 min, 10 μL of 60 μg/100 μL peptide in 100 μL blood, TCA precipitation, MALDI-TOF/TOF-MS and C18 RP-HPLC (214 nm)): without noticeable degradation
stability in mouse blood or serum ([4]; mouse blood or serum, 37°C (abstract)): at least 30 min
Kidney weight ([5]; 5 mg/kg bolus ip): 0.30 g
Liver weight ([5]; 5 mg/kg bolus ip): 1.02 g
Spleen weight ([5]; 5 mg/kg bolus ip): 0.07 g
Kidney weight ([5]; 10 mg/kg bolus ip): 0.29 g
Liver weight ([5]; 10 mg/kg bolus ip): 1.09 g
Spleen weight ([5]; 10 mg/kg bolus ip): 0.06 g
Kidney weight ([5]; 25 mg/kg bolus ip): 0.35 g
Liver weight ([5]; 25 mg/kg bolus ip): 1.24 g
Spleen weight ([5]; 25 mg/kg bolus ip): 0.07 g
Kidney weight ([5]; 50 mg/kg bolus ip): 0.31 g
Liver weight ([5]; 50 mg/kg bolus ip): 1.07 g
Spleen weight ([5]; 50 mg/kg bolus ip): 0.07 g
signs of systemic toxicity (tremor, head tilt, reduced activity and squinting) ([5]; healthy CBA/J mice, bolus ip up to 50 mg/kg, observed for 4 days): no signs of systemic toxicity

Compound: CC(C)C[C@H](NC(=O)CNC(=O)[C@@H]1CCCN1)C(=O)N[C@@H](Cc1ccc(O)cc1)C(=O)N[C@@H](Cc1ccc(O)cc1)C(=O)N[C@@H](Cc1ccccc1)C(N)=O [Middle 6 of 25, H-Pro-Gly-Leu-Tyr-Tyr-Phe -NH2] (H-PGLYYF-NH2)
biological activity in cell growth inhibition assays [1]: inactive
biological activity in cell growth inhibition assays ([1]; listed as fragment 157-162): did not exhibit any biological activity
